Laboratory results from article PMC7822874, “Chemoprotective antimalarials identified through quantitative high-throughput screening of Plasmodium blood and liver stage parasites” (Scientific Reports, 2021).
Several values for one entry are separate records, joined by “and”; a condition that tells them apart may be missing. Equal entries are not always repeated. Where two headings read alike, the source gives them in different places.

What was measured:
[1] = test system: T1, Plasmodium falciparum Dd2-attB (parental line), asexual blood stages; experiment: microbe, parasite or virus in culture; parameters: replicate k of 3 (each line is one of three independent assays; the three lines of one compound and parasite line follow each other); settings: n = 1; for AC50: Plasmodium falciparum, DD2, 72 h; for Individual replicates / Log AC50 (M): 72 h
T1 construct: Dd2-attB, the isogenic parental line
Protocol: (§1) The overexpression of the fumarate-dependent yeast DHODH confers resistance to compounds that inhibit the parasite mETC, or the parasite DHODH enzyme that depends on ubiquinone provided by the parasite mETC. Assays were performed in three independent assays on a subset of compounds, and differences between the Dd2-attB parental line and the ScDHODH transgenic line were analyzed using two-sided Student’s t-tests.

[2] = test system: T2, Plasmodium falciparum Dd2-attB-ScDHODH (transgenic line expressing yeast DHODH), asexual blood stages; experiment: organism not typed; parameters: replicate k of 3 (each line is one of three independent assays; the three lines of one compound and parasite line follow each other)
T2 construct: Dd2-attB-ScDHODH, the transgenic line that expresses yeast DHODH
Protocol: as §1

[3] = read-out: Individual replicates / Log AC50 (converted)
[4] = 72 h; n = 1; read-out: Individual replicates / Log AC50 (converted)

## CC(C)c1c(-c2cnn(C(C)(C)C)c2)[nH]c2c(C#N)cnn2c1=O [NCGC00488278-02]
[1]; [3]
  AC50: 1.59e-05 M
[2]; 72 h, n = 1
  Individual replicates / Log AC50 (M): -4.7986 Log AC50 (M)
[2]; [4]
  AC50: 10 µM

## CC(=O)Nc1cccc(-c2csc(Nc3cc(C)ccn3)n2)c1 [NCGC00357426-01]
[1]
  Individual replicates / Log AC50 (M): -4.8486 Log AC50 (M) (2×) and -4.7986 Log AC50 (M)
[2]; 72 h, n = 1
  Individual replicates / Log AC50 (M): -4.8486 Log AC50 (M)

## COC(=O)c1ccc(O)c2ncc(-c3ccc(C(=O)NCCCN(C)C)cc3)cc12 [NCGC00189510-01]
[1]
  Individual replicates / Log AC50 (M): -5.1486 Log AC50 (M) and -5.1986 Log AC50 (M)
[1]; [3]
  AC50: 7.97e-06 M
[2]; 72 h, n = 1
  Individual replicates / Log AC50 (M): -4.7986 Log AC50 (M) and -5.1486 Log AC50 (M)

## NC(=O)c1csc(-n2cc(Cc3ccc([S+](N)(=O)[O-])cc3)c(-c3cccc(-c4ccccc4)c3)n2)n1 [NCGC00390757-01]
[1]
  Individual replicates / Log AC50 (M): -4.9986 Log AC50 (M) and -4.8486 Log AC50 (M)
[1]; [3]
  AC50: 2e-05 M

## Cc1ccc2nc(-c3ccccn3)c(Nc3ccccc3C)n2c1 [NCGC00106087-03]
[1]
  Individual replicates / Log AC50 (M): -5.3486 Log AC50 (M) and -5.2486 Log AC50 (M)
[1]; [3]
  AC50: 4.48e-06 M
[2]; 72 h, n = 1
  Individual replicates / Log AC50 (M): -5.1986 Log AC50 (M) and -5.1486 Log AC50 (M)
[2]; [4]
  AC50: 5.64 µM

## CN1CCN(Cc2cc(COCc3ccccc3)c3cccnc3c2O)CC1 [NCGC00052276-02]
[1]
  Individual replicates / Log AC50 (M): -5.1986 Log AC50 (M) and -5.0486 Log AC50 (M)
[1]; [3]
  AC50: 5.03e-06 M
[2]; 72 h, n = 1
  Individual replicates / Log AC50 (M): -5.2986 Log AC50 (M) (2×) and -4.9486 Log AC50 (M)

## CC1CN(c2cnc3c(O)ccc(C(=O)O)c3c2)CCN1Cc1ccccc1 (stereo not drawn) [NCGC00249383-01]
[1]
  Individual replicates / Log AC50 (M): -4.7486 Log AC50 (M) and -4.8486 Log AC50 (M)
[1]; [3]
  AC50: 1.78e-05 M
[2]; 72 h, n = 1
  Individual replicates / Log AC50 (M): -4.7986 Log AC50 (M)
[2]; [4]
  AC50: 17.8 µM

## Oc1ccc(CNc2ccc(F)cc2Cl)c2cccnc12 [NCGC00184893-01]
[1]
  Individual replicates / Log AC50 (M): -4.7986 Log AC50 (M) and -4.8486 Log AC50 (M)
[1]; [3]
  AC50: 1.59e-05 M
[2]; 72 h, n = 1
  Individual replicates / Log AC50 (M): -4.7986 Log AC50 (M)
[2]; [4]
  AC50: 14.2 µM

## CC(C)OC(=O)c1ccnc2cc(C(OCCN3CCCCC3)c3ccccc3Cl)sc12 (stereo not drawn) [NCGC00481510-01]
[1]
  Individual replicates / Log AC50 (M): -5.1986 Log AC50 (M)
[1]; [3]
  AC50: 7.1e-06 M
[2]; 72 h, n = 1
  Individual replicates / Log AC50 (M): -5.0986 Log AC50 (M)
[2]; [4]
  AC50: 8.94 µM

## N[C@H]1CCN(c2cnc3c(O)ccc(C(=O)O)c3c2)C1 [NCGC00241041-01]
[1]; [3]
  AC50: 1.42e-05 M
[2]; [4]
  AC50: 15.9 µM

## O=C(NC1CC1)c1cccc(-c2cc(O)c3ncccc3c2)c1 [NCGC00247738-01]
[1]; read-out: Individual replicates / Log AC50 (M) (converted)
  AC50: 1.78e-05 M

## O=C(O)c1ccc(O)c2ncc(N3CCC(N4CCOCC4)C3)cc12 (stereo not drawn) [NCGC00241757-01]
[1]
  Individual replicates / Log AC50 (M): -4.9486 Log AC50 (M) and -4.7986 Log AC50 (M)
[1]; [3]
  AC50: 1e-05 M
[2]; 72 h; n = 1
  Individual replicates / Log AC50 (M): -4.7986 Log AC50 (M)
[2]; [4]
  AC50: 15.9 µM

## Oc1ccc(CCc2c(F)cccc2F)c2cccnc12 [NCGC00184906-01]
[1]
  Individual replicates / Log AC50 (M): -5.2486 Log AC50 (M) and -5.2986 Log AC50 (M)
[1]; [3]
  AC50: 5.64e-06 M
[2]; 72 h, n = 1
  Individual replicates / Log AC50 (M): -5.0486 Log AC50 (M) and -5.1486 Log AC50 (M)
[2]; [4]
  AC50: 6.33 µM

## O=C(O)c1ccc(O)c2ncc(-c3ccc(C(=O)N4CCNCC4)cc3)cc12 [NCGC00189508-01]
[1]
  Individual replicates / Log AC50 (M): -4.7486 Log AC50 (M) and -4.7986 Log AC50 (M)
[1]; [3]
  AC50: 1.59e-05 M
[2]; 72 h, n = 1
  Individual replicates / Log AC50 (M): -4.7486 Log AC50 (M)
[2]; [4]
  AC50: 15.9 µM

## CCOC(=O)c1ccncc1Nc1nn(CCN2CCC(F)(F)CC2)c2ccc(F)cc12 [NCGC00388588-01]
[1]
  Individual replicates / Log AC50 (M): -4.7486 Log AC50 (M) and -4.7986 Log AC50 (M)
[1]; [3]
  AC50: 1.59e-05 M

## c1ccc(CCn2nc(-c3cnccn3)nc2CCCN2CCCCC2)cc1 [NCGC00390063-01]
[1]; [3]
  AC50: 7.97e-06 M

## O=C(NCCCN1CC[S+](=O)([O-])CC1)c1cccc(-c2cc(O)c3ncccc3c2)c1 [NCGC00249378-01]
[2]; 72 h; n = 1
  Individual replicates / Log AC50 (M): -4.6986 Log AC50 (M)
[2]; [4]
  AC50: 20 µM

## COc1ccc(NC(=O)CN2C(=O)CCn3nc(-c4cccn4C)cc32)cc1Cl [NCGC00132050-02]
[1]
  Individual replicates / Log AC50 (M): -4.9986 Log AC50 (M)
[1]; [3]
  AC50: 8.94e-06 M
